# Reference: patent US11149036B2, “3-(1H-pyrazol-4-yl)pyridine allosteric modulators of the M4 muscarinic acetylcholine receptor” (Merck Sharp & Dohme Corp., priority 2017, dated 2021)
# Biological target: T1, human M4 muscarinic acetylcholine receptor (Homo sapiens, UniProt P08173)
# T1 construct: expressed in transfected cells; host or cells: CHO-K1
# T1 sequence (P08173 1-479): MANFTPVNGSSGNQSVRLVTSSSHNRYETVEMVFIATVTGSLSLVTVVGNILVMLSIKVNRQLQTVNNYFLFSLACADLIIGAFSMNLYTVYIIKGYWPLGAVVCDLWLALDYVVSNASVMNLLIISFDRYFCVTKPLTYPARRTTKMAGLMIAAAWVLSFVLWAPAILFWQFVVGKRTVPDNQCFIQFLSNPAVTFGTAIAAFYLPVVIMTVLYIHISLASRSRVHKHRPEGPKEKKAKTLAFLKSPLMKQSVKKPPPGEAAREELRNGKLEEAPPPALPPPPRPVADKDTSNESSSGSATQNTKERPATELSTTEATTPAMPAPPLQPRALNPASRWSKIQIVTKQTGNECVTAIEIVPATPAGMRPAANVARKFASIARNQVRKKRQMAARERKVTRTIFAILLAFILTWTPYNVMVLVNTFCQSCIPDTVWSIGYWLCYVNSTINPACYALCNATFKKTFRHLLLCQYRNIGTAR
# Experiment: human FLIPR-based M4 PAM assay (CHO-K1 cells with human M4 receptor and Gaqi5, calcium dye fluorescence)
# Assay type: cell-based
# Settings: inflection point (IP) of dose response curve, acetylcholine added at 20% of maximum response, read-out: M4 FLIPPR Hu IP
# Outline: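 CHO-K1 cells stably expressing human M4 with chimeric Gaqi5, calcium-dye loaded ~1 h at 37° C; compound added at increasing concentrations 4 min before acetylcholine at an EC20 concentration (sometimes a further EC70 addition).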
row,EC50,Structure (SMILES)
1,17 nM,"COc1cc2ccc(-c3nc(C)c(C#N)cc3-c3cnn(CC4(C)CCCC4)c3)cc2nn1 [Example 105, 6-(3-methoxycinnolin-7-yl)-2-methyl-5-(1-((1-methylcyclopentyl)methyl)-1H-pyrazol-4-yl)nicotinonitrile]"
2,82 nM,"Cc1nc(-c2cnc3c(c2)ncn3C)c(-c2cnn(CC3(C)CCCC3)c2)cc1C#N [Example 106, 2-methyl-6-(3-methyl-3H-imidazo[4,5-b]pyridin-6-yl)-5-(1-((1-methylcyclopentyl)methyl)-1H-pyrazol-4-yl)nicotinonitrile]"
3,36 nM,"Cn1cnc2cc(-c3nccc(F)c3-c3cnn(CC4(C)CCCC4)c3)cnc21 [Example 107, 6-(4-fluoro-3-(1-((1-methylcyclopentyl)methyl)-1H-pyrazol-4-yl)pyridin-2-yl)-3-methyl-3H-imidazo[4,5-b] pyridine]"
4,86 nM,"Cn1cnc2cc(-c3nc(C(F)F)ccc3-c3cnn(CC4(F)CCCC4)c3)cnc21 [Example 108, 6-(6-(difluoromethyl)-3-(1-((1-fluorocyclopentyl)methyl)-1H-pyrazol-4-yl)pyridin-2-yl)-3-methyl-3H-imidazo[4,5-b] pyridine]"
5,69 nM,"Cn1cnc2cc(-c3ncc(Cl)cc3-c3cnn(CC4(C)CCCC4)c3)cnc21 [Example 109, 6-(5-chloro-3-(1-((1-methylcyclopentyl)methyl)-1H-pyrazol-4-yl)pyridin-2-yl)-3-methyl-3H-imidazo[4,5-b] pyridine]"
6,23 nM,"Cc1cn2ccc(-c3ncc(Cl)cc3-c3cnn(CC4(F)CCCC4)c3)cc2n1 [Example 110, 7-(5-chloro-3-(1-((1-fluorocyclopentyl)methyl)-1H-pyrazol-4-yl)pyridin-2-yl)-2-methylimidazo[1,2-a] pyridine]"
7,38 nM,"FC(F)c1cn2ccc(-c3ncc(Cl)cc3-c3cnn(CC4(F)CCCC4)c3)cc2n1 [Example 111, 7-(5-chloro-3-(1-((1-fluorocyclopentyl)methyl)-1H-pyrazol-4-yl)pyridin-2-yl)-2-(difluoromethyl)imidazo [1,2-a]pyridine]"
8,46 nM,"Cc1cnc(-c2ccn3ccnc3c2)c(-c2cnn(CC3(C)CCCC3)c2)c1 [Example 112, 7-(5-methyl-3-(1-((1-methylcyclopentyl)methyl)-1H-pyrazol-4-yl)pyridin-2-yl)imidazo[1,2-a] pyridine]"
9,79 nM,"Cc1cnc(-c2ccn3ncnc3c2)c(-c2cnn(CC3(C)CCCC3)c2)c1 [Example 113, 7-(5-methyl-3-(1-((1-methylcyclopentyl)methyl)-1H-pyrazol-4-yl)pyridin-2-yl)-[1,2,4]triazolo[1,5-a] pyridine]"
10,140 nM,"COc1nc(-c2ccn3cc(C)nc3c2)c(-c2cnn(CC3(F)CCCC3)c2)cc1F [Example 114, 7-(5-fluoro-3-(1-((1-fluorocyclopentyl)methyl)-1H-pyrazol-4-yl)-6-methoxypyridin-2-yl)-2-methylimidazo[1,2-a]pyridine]"
11,21 nM,"Cc1cn2ccc(-c3nc(Cl)ccc3-c3cnn(CC4(C)CCCC4)c3)cc2n1 [Example 115, 7-(6-chloro-3-(1-((1-methylcyclopentyl)methyl)-1H-pyrazol-4-yl)pyridin-2-yl)-2-methylimidazo[1,2-a] pyridine]"
12,61 nM,"Cc1cc(-c2cnn(CC3(F)CCCC3)c2)c(-c2cnc3c(c2)C(=O)N(CC2CC2)C3)nc1Cl [Example 116, 3-(6-chloro-3-(1-((1-fluorocyclopentyl)methyl)-1H-pyrazol-4-yl)-5-methylpyridin-2-yl)-6-(cyclopropylmethyl)-6,7-dihydro-5H-pyrrolo [3,4-b]pyridin-5-one]"
13,45 nM,"Cc1cc(-c2cnn(CC3(F)CCCC3)c2)c(-c2cnc3c(c2)ncn3C)nc1Cl [Example 117, 6-(6-chloro-3-(1-((1-fluorocyclopentyl)methyl)-1H-pyrazol-4-yl)-5-methylpyridin-2-yl)-3-methyl-3H-imidazo[4,5-b]pyridine]"
14,48 nM,"Cc1cc(-c2cnn(CC3(F)CCCC3)c2)c(-c2ccn3cnnc3c2)nc1Cl [Example 118, 7-(6-chloro-3-(1-((1-fluorocyclopentyl)methyl)-1H-pyrazol-4-yl)-5-methylpyridin-2-yl)-[1,2,4]triazolo[4,3-a]pyridine]"
15,5 nM,"COc1cc2ccc(-c3nc(Cl)c(C)cc3-c3cnn(CC4(C)CCCC4)c3)cc2nn1 [Example 119, 7-(6-chloro-5-methyl-3-(1-((1-methylcyclopentyl)methyl)-1H-pyrazol-4-yl)pyridin-2-yl)-3-methoxycinnoline]"
16,44 nM,"Cn1cnc2cc(-c3nc(C(F)F)ccc3-c3cnn(C[C@H]4CC[C@H](F)C4)c3)ccc21 [Example 120, 5-(6-(difluoromethyl)-3-(1-(((1S,3S)-3-fluorocyclopentyl)methyl)-1H-pyrazol-4-yl)pyridin-2-yl)-1-methyl-1H-benzo[d] imidazole]"
17,50 nM,"Cn1cnc2cc(-c3nc(C(F)F)ccc3-c3cnn(C[C@@H]4CC[C@@H](F)C4)c3)ccc21 [Example 121, 5-(6-(difluoromethyl)-3-(1-(((1R,3R)-3-fluorocyclopentyl)methyl)-1H-pyrazol-4-yl)pyridin-2-yl)-1-methyl-1H-benzo[d] imidazole]"
18,59 nM,"COc1cc2ccc(-c3nc(C(F)F)ccc3-c3cnn(C[C@@H]4CC[C@@H](F)C4)c3)cc2nn1 [Example 122, 7-(6-(difluoromethyl)-3-(1-(((1R,3R)-3-fluorocyclopentyl)methyl)-1H-pyrazol-4-yl)pyridin-2-yl)-3-methoxycinnoline]"
19,63 nM,"COc1cc2ccc(-c3nc(C(F)F)ccc3-c3cnn(C[C@H]4CC[C@H](F)C4)c3)cc2nn1 [Example 123, 7-(6-(difluoromethyl)-3-(1-(((1S,3S)-3-fluorocyclopentyl)methyl)-1H-pyrazol-4-yl)pyridin-2-yl)-3-methoxy-cinnoline]"
20,27 nM,"Cn1nnc2cc(-c3nc(C#N)ccc3-c3cnn(CC4(C)CCCC4)c3)ccc21 [Example 124, 6-(1-methyl-1H-benzo[d][1,2,3]triazol-5-yl)-5-(1-((1-methylcyclopentyl)methyl)-1H-pyrazol-4-yl)picolinonitrile]"
21,76 nM,"Cn1nc2ccc(-c3nc(C#N)ccc3-c3cnn(CC4(C)CCCC4)c3)cc2n1 [Example 125, 6-(2-methyl-2H-benzo[d][1,2,3]triazol-5-yl)-5-(1-((1-methylcyclopentyl)methyl)-1H-pyrazol-4-yl)picolinonitrile]"
22,78 nM,"CC1(Cn2cc(-c3ccc(C#N)nc3-c3ccc4ccc(Cl)nc4c3)cn2)CCCC1 [Example 126, 6-(2-chloro-quinolin-7-yl)-5-(1-((1-methylcyclo-pentyl)methyl)-1H-pyrazol-4-yl)picolinonitrile]"
23,26 nM,"CC1(Cn2cc(-c3ccc(C#N)nc3-c3ccc4cc(Cl)nnc4c3)cn2)CCCC1 [Example 127, 6-(3-chlorocinnolin-7-yl)-5-(1-((1-methylcyclopentyl)methyl)-1H-pyrazol-4-yl)picolinonitrile]"
24,35 nM,"CC1(Cn2cc(-c3ccc(C#N)nc3-c3ccc4cc(F)nnc4c3)cn2)CCCC1 [Example 128, 6-(3-fluorocinnolin-7-yl)-5-(1-((1-methylcyclopentyl)methyl)-1H-pyrazol-4-yl)picolinonitrile]"
